Results: patent publication EP0774465A1, “Penem derivatives and antimicrobial agents containing the same” (priority 1995, dated 1997)
≈ marks a conversion by molar mass, not a printed value. Like-named read-outs stand apart in the source and are kept apart here.

Assays:
[1] = tested on: MRSA 31; assay: Antibacterial activity (MIC) against MRSA 31; type: cell-based, methicillin-resistant Staphylococcus aureus; conditions: for MIC: Staphylococcus aureus, MRSA, read-out: antibacterial activities (MIC)
Source text: (§1) With respect to compounds (I) of the present invention obtained as described above, their general antibacterial activities and their antibacterial activities (MIC) against various methicillin-resistant strains of Staphylococcus aureus (methicillin-resistant Staphylococcus aureus: MRSA) were investigated. The results will be shown in Table 1, in which the test compounds are indicated by the numbers of their working examples to be described subsequently. Further, as the general antibacterial activities, those of Staphylococcus aureus 209P JC-1 and Escherichia coli NIHJ JC-2 were used.
(§2) (The unit for the figures in the table is µg/mℓ.)

[2] = tested on: MRSA 33; assay: Antibacterial activity (MIC) against MRSA 33; type: cell-based, methicillin-resistant Staphylococcus aureus; conditions: for MIC: Staphylococcus aureus, MRSA, read-out: antibacterial activities (MIC)
Source text: as §1, §2

[3] = tested on: Staphylococcus aureus 209P JC-1; assay: General antibacterial activity (MIC) against Staphylococcus aureus 209P JC-1; type: cell-based; conditions: for MIC: Staphylococcus aureus, read-out: antibacterial activities (MIC)
Source text: as §1, §2

[4] = tested on: Escherichia coli NIHJ JC-2; assay: General antibacterial activity (MIC) against Escherichia coli NIHJ JC-2; type: cell-based; conditions: for MIC: Escherichia coli; for antibacterial activities (MIC): NIHJ JC-2, 10^6 cfu/mℓ
Source text: as §1, §2

[5] = NIHJJC2, NIHJ JC-2, 10^6 cfu/mℓ, read-out: antibacterial activities (MIC)

Compound: C[C@H](O)[C@@H]1C(=O)N2C(C(=O)O)=C(S[C@H]3CCN(CCF)C3)S[C@H]12 [Ex. 79, (5R,6R)-6-((S)-l-hydroxyethyl)-2-[(S)-1-(2-fluoroethyl)pyrrolidin-3-yl]thiopenem-3-carboxylic acid]
- MIC ([1]; MRSA 31, 10^6 cfu/mℓ): 6.25 µg/mL (≈ 17.2 µM)
- MIC ([2]; MRSA 33, 10^6 cfu/mℓ): 6.25 µg/mL (≈ 17.2 µM)
- MIC ([3]; 209P JC-1, 10^6 cfu/mℓ): 0.1 µg/mL (≈ 0.276 µM)
- MIC [4, 5]: 0.1 µg/mL (≈ 0.276 µM)

Compound: C[C@H](O)[C@@H]1C(=O)N2C(C(=O)O)=C(SCC(=O)NCc3ccccc3)S[C@H]12 [Ex. 13, (5R,6R)-2-(N-benzylcarbamoylmethyl)thio-6-((S)-1-hydroxyethyl)penem-3-carboxylic acid]
- MIC ([1]; MRSA 31, 10^6 cfu/mℓ): 12.5 µg/mL (≈ 31.7 µM)
- MIC ([2]; MRSA 33, 10^6 cfu/mℓ): 12.5 µg/mL (≈ 31.7 µM)
- MIC ([3]; 209P JC-1, 10^6 cfu/mℓ): 0.39 µg/mL (≈ 0.989 µM)
- MIC [4, 5]: 3.13 µg/mL (≈ 7.93 µM)

Compound: C[C@H](O)[C@@H]1C(=O)N2C(C(=O)O)=C(SCCc3ccccc3)S[C@H]12 [Ex. 43, (5R,6R)-6-((S)-1-hydroxyethyl)-2-phenethylthiopenem-3-carboxylic acid]
- MIC ([1]; MRSA 31, 10^6 cfu/mℓ): 6.25 µg/mL (≈ 17.8 µM)
- MIC ([2]; MRSA 33, 10^6 cfu/mℓ): 6.25 µg/mL (≈ 17.8 µM)
- MIC ([3]; 209P JC-1, 10^6 cfu/mℓ): 0.2 µg/mL (≈ 0.569 µM)
- MIC [4, 5]: 12.5 µg/mL (≈ 35.6 µM)

Compound: C[C@H](O)[C@@H]1C(=O)N2C(C(=O)O)=C(SCCF)S[C@H]12 [Ex. 48, (5R,6R)-6-((S)-1-hydroxyethyl)-2-(2-fluoroethyl)thiopenem-3-carboxylic acid]
- MIC [1]: 12.5 µg/mL (≈ 42.6 µM)
- MIC [2]: 12.5 µg/mL (≈ 42.6 µM)
- MIC ([3]; 209P): 0.2 µg/mL (≈ 0.682 µM)
- MIC ([4]; NIHJJC2, read-out: antibacterial activities (MIC)): 0.1 µg/mL (≈ 0.341 µM)

Compound: C[C@H](O)[C@@H]1C(=O)N2C(C(=O)O)=C(SC3CCc4ccccc43)S[C@H]12 (stereo partly drawn) [Ex. 81, (5R,6R)-6-((S)-1-hydroxyethyl)-2-(1-indanyl)thiopenem-3-carboxylic acid]
- MIC ([1]; MRSA 31, 10^6 cfu/mℓ): 3.13 µg/mL (≈ 8.61 µM)
- MIC ([2]; MRSA 33, 10^6 cfu/mℓ): 3.13 µg/mL (≈ 8.61 µM)
- MIC ([3]; 209P JC-1, 10^6 cfu/mℓ): 0.1 µg/mL (≈ 0.275 µM)
- MIC [4, 5]: 6.25 µg/mL (≈ 17.2 µM)

Compound: C[C@H](O)[C@@H]1C(=O)N2C(C(=O)O)=C(S[C@H]3CCN(CC(=O)c4ccccc4)C3)S[C@H]12 [Ex. 88, (5R,6R)-6-((S)-1-hydroxyethyl)-2-[(S)-1-(2-oxo-2-phenylethyl)pyrrolidin-3-ylthio]penem-3-carboxylic acid]
- MIC ([1]; MRSA 31, 10^6 cfu/mℓ): 6.25 µg/mL (≈ 14.4 µM)
- MIC ([2]; MRSA 33, 10^6 cfu/mℓ): 6.25 µg/mL (≈ 14.4 µM)
- MIC ([3]; 209P JC-1, 10^6 cfu/mℓ): 0.2 µg/mL (≈ 0.46 µM)
- MIC [4, 5]: 0.39 µg/mL (≈ 0.898 µM)

Compound: C[C@H](O)[C@@H]1C(=O)N2C(C(=O)O)=C(SCc3ccccc3)S[C@H]12 [Ex. 42, (5R,6R)-6-((S)-1-hydroxyethyl)-2-benzylthiopenem-3-carboxylic acid]
- MIC ([1]; MRSA 31, 10^6 cfu/mℓ): 3.13 µg/mL (≈ 9.28 µM)
- MIC ([2]; MRSA 33, 10^6 cfu/mℓ): 3.13 µg/mL (≈ 9.28 µM)
- MIC ([3]; 209P JC-1, 10^6 cfu/mℓ): 0.1 µg/mL (≈ 0.296 µM)
- MIC [4, 5]: 6.25 µg/mL (≈ 18.5 µM)

Compound: (5R,6R)-6-((S)-1-fluoroethyl)-2-methylthiopenem-3-carboxylic acid [Ex. 99]
- antibacterial activities (MIC) ([1]; MRSA 31, 10^6 cfu/mℓ): 6.25 µg/mL
- antibacterial activities (MIC) ([2]; MRSA 33, 10^6 cfu/mℓ): 6.25 µg/mL
- antibacterial activities (MIC) ([3]; 209P JC-1, 10^6 cfu/mℓ): 0.1 µg/mL
- antibacterial activities (MIC) [4]: 0.78 µg/mL

Compound: CSC1=C(C(=O)O)N2C(=O)[C@@H]([C@H](C)O)[C@H]2S1 [Ex. 40, (5R,6R)-6-((S)-1-hydroxyethyl)-2-methylthiopenem-3-carboxylic acid]
- MIC ([1]; MRSA 31, 10^6 cfu/mℓ): 12.5 µg/mL (≈ 47.8 µM)
- MIC ([2]; MRSA 33, 10^6 cfu/mℓ): 12.5 µg/mL (≈ 47.8 µM)
- MIC ([3]; 209P JC-1, 10^6 cfu/mℓ): 0.39 µg/mL (≈ 1.49 µM)
- MIC [4, 5]: 0.39 µg/mL (≈ 1.49 µM)

Compound: C[C@H](O)[C@@H]1C(=O)N2C(C(=O)O)=C(SCCc3ccccn3)S[C@H]12 [Ex. 73, (5R,6R)-6-((S)-1-hydroxyethyl)-2-[2-(2-pyridyl)ethyl]thiopenem-3-carboxylic acid]
- MIC ([1]; MRSA 31, 10^6 cfu/mℓ): 6.25 µg/mL (≈ 17.7 µM)
- MIC ([2]; MRSA 33, 10^6 cfu/mℓ): 6.25 µg/mL (≈ 17.7 µM)
- MIC ([3]; 209P JC-1, 10^6 cfu/mℓ): 0.05 µg/mL (≈ 0.142 µM)
- MIC [4, 5]: 0.78 µg/mL (≈ 2.21 µM)

Compound: C[C@H](O)[C@@H]1C(=O)N2C(C(=O)O)=C(S[C@@H]3CN[C@H](CO)C3)S[C@H]12 [Ex. 94, (5R,6R)-6-((S)-1-hydroxyethyl)-2-[(2S,4S)-2-hydroxymethylpyrrolidin-4-ylthio]penem-3-carboxylic acid]
- MIC ([1]; MRSA 31, 10^6 cfu/mℓ): 6.25 µg/mL (≈ 18 µM)
- MIC ([2]; MRSA 33, 10^6 cfu/mℓ): 6.25 µg/mL (≈ 18 µM)
- MIC ([3]; 209P JC-1, 10^6 cfu/mℓ): 0.1 µg/mL (≈ 0.289 µM)
- MIC [4, 5]: 0.2 µg/mL (≈ 0.577 µM)

Compound: CCSC1=C(C(=O)O)N2C(=O)[C@@H]([C@H](C)O)[C@H]2S1 [Ex. 41, (5R,6R)-6-((S)-1-hydroxyethyl)-2-ethylthiopenem-3-carboxylic acid]
- MIC ([1]; MRSA 31, 10^6 cfu/mℓ): 12.5 µg/mL (≈ 45.4 µM)
- MIC ([2]; MRSA 33, 10^6 cfu/mℓ): 12.5 µg/mL (≈ 45.4 µM)
- MIC ([3]; 209P JC-1, 10^6 cfu/mℓ): 0.2 µg/mL (≈ 0.726 µM)
- MIC [4, 5]: 0.2 µg/mL (≈ 0.726 µM)

Compound: C[C@H](O)[C@@H]1C(=O)N2C(C(=O)O)=C(SCc3ccc4ccccc4c3)S[C@H]12 [Ex. 76, (5R,6R)-6-((S)-1-hydroxyethyl)-2-(2-naphthyl)methylthiopenem-3-carboxylic acid]
- MIC ([1]; MRSA 31, 10^6 cfu/mℓ): 3.13 µg/mL (≈ 8.08 µM)
- MIC ([2]; MRSA 33, 10^6 cfu/mℓ): 3.13 µg/mL (≈ 8.08 µM)
- MIC ([3]; 209P JC-1, 10^6 cfu/mℓ): 0.1 µg/mL (≈ 0.258 µM)
- MIC [4, 5]: 12.5 µg/mL (≈ 32.3 µM)

Compound: CC(=N)N1CC[C@H](SC2=C(C(=O)O)N3C(=O)[C@@H]([C@H](C)O)[C@H]3S2)C1 [Ex. 89, (5R,6R)-6-((S)-1-hydroxyethyl)-2-[(S)-1-(1-iminoethyl)pyrrolidin-3-ylthio]penem-3-carboxylic acid]
- MIC ([1]; MRSA 31, 10^6 cfu/mℓ): 6.25 µg/mL (≈ 17.5 µM)
- MIC ([2]; MRSA 33, 10^6 cfu/mℓ): 6.25 µg/mL (≈ 17.5 µM)
- MIC ([3]; 209P JC-1, 10^6 cfu/mℓ): 0.1 µg/mL (≈ 0.28 µM)
- MIC [4, 5]: 0.39 µg/mL (≈ 1.09 µM)

Compound: C[C@H](F)[C@H]1C(=O)N2C(C(=O)O)=C(SC3CCN(c4ccccc4)C3)S[C@H]12 (single isomer, unassigned) [Ex. 107 (Isomer A)]
- antibacterial activities (MIC) ([1]; MRSA 31, 10^6 cfu/mℓ): 1.56 µg/mL
- antibacterial activities (MIC) ([2]; MRSA 33, 10^6 cfu/mℓ): 1.56 µg/mL
- MIC ([3]; 209P JC-1, 10^6 cfu/mℓ): 0.1 µg/mL (≈ 0.253 µM)
- MIC [4, 5]: > 25 µg/mL

Compound: CCCSC1=C(C(=O)O)N2C(=O)[C@@H]([C@H](C)O)[C@H]2S1 [Ex. 46, (5R,6R)-6-((S)-1-hydroxyethyl)-2-propylthiopenem-3-carboxylic acid]
- MIC ([1]; MRSA 31, 10^6 cfu/mℓ): 12.5 µg/mL (≈ 43.2 µM)
- MIC ([2]; MRSA 33, 10^6 cfu/mℓ): 12.5 µg/mL (≈ 43.2 µM)
- MIC ([3]; 209P JC-1, 10^6 cfu/mℓ): 0.39 µg/mL (≈ 1.35 µM)
- MIC [4, 5]: 0.78 µg/mL (≈ 2.7 µM)

Compound: C[C@H](O)[C@@H]1C(=O)N2C(C(=O)O)=C(SC3Cc4ccccc4C3)S[C@H]12 [Ex. 71, (5R,6R)-6-((S)-1-hydroxyethyl)-2-(2-indanyl)thiopenem-3-carboxylic acid]
- MIC ([1]; MRSA 31, 10^6 cfu/mℓ): 3.13 µg/mL (≈ 8.61 µM)
- MIC ([2]; MRSA 33, 10^6 cfu/mℓ): 1.56 µg/mL (≈ 4.29 µM)
- MIC ([3]; 209P JC-1, 10^6 cfu/mℓ): 0.05 µg/mL (≈ 0.138 µM)
- MIC [4, 5]: 6.25 µg/mL (≈ 17.2 µM)

Compound: C[C@H](F)[C@H]1C(=O)N2C(C(=O)O)=C(SC3CCN(c4ccccc4)C3)S[C@H]12 (single isomer, unassigned) [Ex. 107 (Isomer B)]
- antibacterial activities (MIC) ([1]; MRSA 31, 10^6 cfu/mℓ): 3.13 µg/mL
- antibacterial activities (MIC) ([2]; MRSA 33, 10^6 cfu/mℓ): 3.13 µg/mL
- antibacterial activities (MIC) ([3]; 209P JC-1, 10^6 cfu/mℓ): 0.1 µg/mL
- antibacterial activities (MIC) [4]: 50 µg/mL

Compound: CC(C)SC1=C(C(=O)O)N2C(=O)[C@@H]([C@H](C)O)[C@H]2S1 [Ex. 47, (5R,6R)-6-((S)-1-hydroxyethyl)-2-(1-methylethyl)thiopenem-3-carboxylic acid]
- MIC ([1]; MRSA 31, 10^6 cfu/mℓ): 12.5 µg/mL (≈ 43.2 µM)
- MIC ([2]; MRSA 33, 10^6 cfu/mℓ): 12.5 µg/mL (≈ 43.2 µM)
- MIC ([3]; 209P JC-1, 10^6 cfu/mℓ): 0.2 µg/mL (≈ 0.691 µM)
- MIC [4, 5]: 0.2 µg/mL (≈ 0.691 µM)

Compound: CC(=N)N1CC[C@H](SC2=C(C(=O)O)N3C(=O)[C@H]([C@H](C)F)[C@H]3S2)C1 [Ex. 106, (5R,6R)-6-((S)-1-fluoroethyl)-2-[(S)-1-(1-iminoethyl)pyrrolidin-3-ylthio]penem-3-carboxylic acid]
- MIC ([1]; MRSA 31, 10^6 cfu/mℓ): 3.13 µg/mL (≈ 8.71 µM)
- MIC ([2]; MRSA 33, 10^6 cfu/mℓ): 3.13 µg/mL (≈ 8.71 µM)
- MIC ([3]; 209P JC-1, 10^6 cfu/mℓ): 0.05 µg/mL (≈ 0.139 µM)
- MIC [4, 5]: 1.56 µg/mL (≈ 4.34 µM)
